Calls of active or inactive are those of the source. No cut-off for these calls is given here.
Experiments:
MM1.S [1] = assay: Induction of cell cycle arrest in human MM1.S cells assessed as accumulation of cells at G2 phase at 3 nM incubated for 24 hrs by flow cytometry analysis (reference value: 14.68%); type: functional
[2] = molecular target: T1, Protein cereblon/Bromodomain-containing protein 3 (Homo sapiens) (UniProt Q15059+Q96SW2); assay: PROTAC activity at CRBN/BRD3 in human MM1.S cells assessed as induction of protein degradation at 2 nM measured after 24 hrs by Western blot analysis; type: cell-based
[3] = molecular target: T2, Protein cereblon/Bromodomain-containing protein 4 (Homo sapiens) (UniProt O60885+Q96SW2); assay: PROTAC activity at CRBN/BRD4-L in human MM1.S cells assessed as induction of protein degradation at 2 nM measured after 24 hrs by Western blot analysis; type: cell-based
[4] = molecular target: T2, Protein cereblon/Bromodomain-containing protein 4 (Homo sapiens); assay: PROTAC activity at CRBN/BRD4-L in human HGC-27 cells assessed as induction of protein degradation at 30 nM measured after 8 to 24 hrs by Western blot analysis; type: cell-based; conditions: time 8-24 hrs
MM1.S [5] = assay: Downregulation of c-Myc protein expression in human MM1.S cells at 0.1 to 30 nM measured after 24 hrs by Western blot analysis; type: functional, cell-based; conditions: dose 0.1-30 nM
[6] = molecular target: T1, Protein cereblon/Bromodomain-containing protein 3 (Homo sapiens); assay: PROTAC activity at CRBN/BRD3 in human MM1.S cells assessed as induction of protein degradation at 30 nM pretreated with lenalidomide for 2 hrs followed by compound addition and measured after 4 hrs by Western blot analysis; type: cell-based
[7] = molecular target: T2, Protein cereblon/Bromodomain-containing protein 4 (Homo sapiens); assay: PROTAC activity at CRBN/BRD4-L in human MCF7 cells assessed as induction of protein degradation at 30 nM by Western blot analysis; type: cell-based; conditions: time 1-3 hrs, TDE = time-dependent effect
[8] = molecular target: T2, Protein cereblon/Bromodomain-containing protein 4 (Homo sapiens); assay: PROTAC activity at CRBN/BRD4-L in human U-937 cells assessed as induction of protein degradation by Western blot analysis; type: cell-based
[9] = molecular target: T1, Protein cereblon/Bromodomain-containing protein 3 (Homo sapiens); assay: PROTAC activity at CRBN/BRD3 in human MM1.S cells assessed as induction of protein degradation at 30 nM by Western blot analysis; type: cell-based; conditions: TDE = time-dependent effect
MM1.S [10] = assay: Induction of cell cycle arrest in human MM1.S cells assessed as accumulation of cells at G1 phase at 1 nM incubated for 24 hrs by flow cytometry analysis (reference value: 56.32%); type: functional
MM1.S [11] = assay: Induction of cell cycle arrest in human MM1.S cells assessed as accumulation of cells at S phase at 300 nM incubated for 24 hrs by flow cytometry analysis (reference value: 22.37%); type: functional
MM1.S [12] = assay: Induction of cell cycle arrest in human MM1.S cells assessed as accumulation of cells at G2 phase at 300 nM incubated for 24 hrs by flow cytometry analysis (reference value: 14.68%); type: functional
HGC-27 = assay: Antiproliferative activity against human HGC-27 cells assessed as cell growth inhibition measured after 4 days by CCK-8 assay; type: functional, cell-based; conditions: HGC-27, 96 h
[13] = molecular target: T2, Protein cereblon/Bromodomain-containing protein 4 (Homo sapiens); assay: PROTAC activity at CRBN/BRD4-L in human MV4-11 cells assessed as induction of protein degradation at 0.1 to 30 nM measured after 24 hrs by Western blot analysis; type: cell-based; conditions: dose 0.1-30 nM
[14] = molecular target: T1, Protein cereblon/Bromodomain-containing protein 3 (Homo sapiens); assay: PROTAC activity at CRBN/BRD3 in human A549 cells assessed as induction of protein degradation measured after 24 hrs by Western blot analysis; type: cell-based; conditions: dose 3-1000 nM
[15] = molecular target: T2, Protein cereblon/Bromodomain-containing protein 4 (Homo sapiens); assay: PROTAC activity at CRBN/BRD4-L in human MM1.S cells assessed as induction of protein degradation at 30 nM pretreated with 0.2 to 10 uM MG132 for 2 hrs followed by compound addition and measured after 4 hrs by Western blot analysis; type: cell-based
MM1.S [16] = assay: Induction of cell cycle arrest in human MM1.S cells assessed as accumulation of cells at S phase at 30 nM incubated for 24 hrs by flow cytometry analysis (reference value: 22.37%); type: functional
[17] = molecular target: T3, Protein cereblon/Bromodomain-containing protein 2 (Homo sapiens) (UniProt P25440+Q96SW2); assay: PROTAC activity at CRBN/BRD2 in human HGC-27 cells assessed as induction of protein degradation at 0.1 to 30 nM measured after 24 hrs by Western blot analysis; type: cell-based; conditions: dose 0.1-30 nM
[18] = molecular target: T1, Protein cereblon/Bromodomain-containing protein 3 (Homo sapiens); assay: PROTAC activity at CRBN/BRD3 in human MCF7 cells assessed as induction of protein degradation at 30 nM measured after 3 to 6 hrs by Western blot analysis; type: cell-based; conditions: time 3-6 hrs
MM1.S [19] = assay: Induction of cell cycle arrest in human MM1.S cells assessed as accumulation of cells at G2 phase at 30 nM incubated for 24 hrs by flow cytometry analysis (reference value: 14.68%); type: functional
[20] = molecular target: T2, Protein cereblon/Bromodomain-containing protein 4 (Homo sapiens); assay: PROTAC activity at CRBN/BRD4-L in human MCF7 cells assessed as induction of protein degradation at 30 nM measured after 3 to 6 hrs by Western blot analysis; type: cell-based; conditions: time 3-6 hrs
HeLa = assay: Antiproliferative activity against human HeLa cells assessed as cell growth inhibition measured after 4 days by CCK-8 assay; type: functional, cell-based; conditions: 96 h
[21] = molecular target: T2, Protein cereblon/Bromodomain-containing protein 4 (Homo sapiens); assay: PROTAC activity at CRBN/BRD4-L in human HepG2 cells assessed as induction of protein degradation measured after 24 hrs by Western blot analysis; type: cell-based; conditions: dose 10-3000 nM
MM1.S [22] = assay: Induction of cell cycle arrest in human MM1.S cells assessed as accumulation of cells at G1 phase at 300 nM incubated for 24 hrs by flow cytometry analysis (reference value: 56.32%); type: functional
[23] = molecular target: T2, Protein cereblon/Bromodomain-containing protein 4 (Homo sapiens); assay: PROTAC activity at CRBN/BRD4-L in human MM1.S cells assessed as induction of protein degradation at 30 nM pretreated with lenalidomide for 2 hrs followed by compound addition and measured after 4 hrs by Western blot analysis; type: cell-based
[24] = molecular target: T1, Protein cereblon/Bromodomain-containing protein 3 (Homo sapiens); assay: PROTAC activity at CRBN/BRD3 in human HepG2 cells assessed as induction of protein degradation measured after 24 hrs by Western blot analysis; type: cell-based; conditions: dose 10-3000 nM
MM1.S [25] = assay: Induction of cell cycle arrest in human MM1.S cells assessed as accumulation of cells at G1 phase at 30 nM incubated for 24 hrs by flow cytometry analysis (reference value: 56.32%); type: functional
MM1.S [26] = assay: Induction of cell cycle arrest in human MM1.S cells assessed as accumulation of cells at G1 phase at 3 nM incubated for 24 hrs by flow cytometry analysis (reference value: 56.32%); type: functional
[27] = molecular target: T3, Protein cereblon/Bromodomain-containing protein 2 (Homo sapiens); assay: PROTAC activity at CRBN/BRD2 in human A549 cells assessed as induction of protein degradation at 3 to 1000 nM measured after 24 hrs by Western blot analysis; type: cell-based; conditions: dose 3-1000 nM
[28] = molecular target: T2, Protein cereblon/Bromodomain-containing protein 4 (Homo sapiens); assay: PROTAC activity at CRBN/BRD4-L in human MM1.S cells assessed as induction of protein degradation at 30 nM by Western blot analysis; type: cell-based; conditions: TDE = time-dependent effect
[29] = molecular target: T1, Protein cereblon/Bromodomain-containing protein 3 (Homo sapiens); assay: PROTAC activity at CRBN/BRD3 in human HGC-27 cells assessed as induction of protein degradation at 30 nM measured after 8 to 24 hrs by Western blot analysis; type: cell-based; conditions: time 8-24 hrs
HepG2 = assay: Antiproliferative activity against human HepG2 cells assessed as cell growth inhibition measured after 4 days by CCK-8 assay; type: functional, cell-based; conditions: HepG2, 96 h
MM1.S [30] = assay: Downregulation of p21 protein expression in human MM1.S cells at 0.1 to 30 nM measured after 24 hrs by Western blot analysis; type: functional, cell-based; conditions: dose 0.1-30 nM

T1 sequence (Q15059 2-726 limits assumed): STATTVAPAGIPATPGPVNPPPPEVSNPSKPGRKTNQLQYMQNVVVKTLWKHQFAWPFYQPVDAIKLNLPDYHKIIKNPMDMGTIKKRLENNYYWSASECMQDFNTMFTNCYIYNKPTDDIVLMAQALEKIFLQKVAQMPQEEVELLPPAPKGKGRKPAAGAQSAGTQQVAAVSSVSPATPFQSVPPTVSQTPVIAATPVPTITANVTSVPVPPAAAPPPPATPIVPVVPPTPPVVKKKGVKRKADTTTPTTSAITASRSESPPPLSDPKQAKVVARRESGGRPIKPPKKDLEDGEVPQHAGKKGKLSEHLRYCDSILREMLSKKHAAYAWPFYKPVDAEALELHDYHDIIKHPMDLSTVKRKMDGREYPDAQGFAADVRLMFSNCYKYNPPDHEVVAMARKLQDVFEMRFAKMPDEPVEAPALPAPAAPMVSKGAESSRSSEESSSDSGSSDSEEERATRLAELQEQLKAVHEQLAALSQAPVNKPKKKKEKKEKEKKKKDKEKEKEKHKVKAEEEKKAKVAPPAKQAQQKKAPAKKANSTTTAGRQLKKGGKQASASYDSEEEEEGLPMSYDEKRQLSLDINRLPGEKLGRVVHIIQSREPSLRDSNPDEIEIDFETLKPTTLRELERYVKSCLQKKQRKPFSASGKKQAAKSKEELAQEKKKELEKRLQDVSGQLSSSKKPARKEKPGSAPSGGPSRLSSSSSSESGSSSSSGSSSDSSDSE
T1 sequence (Q96SW2 whole entry partner): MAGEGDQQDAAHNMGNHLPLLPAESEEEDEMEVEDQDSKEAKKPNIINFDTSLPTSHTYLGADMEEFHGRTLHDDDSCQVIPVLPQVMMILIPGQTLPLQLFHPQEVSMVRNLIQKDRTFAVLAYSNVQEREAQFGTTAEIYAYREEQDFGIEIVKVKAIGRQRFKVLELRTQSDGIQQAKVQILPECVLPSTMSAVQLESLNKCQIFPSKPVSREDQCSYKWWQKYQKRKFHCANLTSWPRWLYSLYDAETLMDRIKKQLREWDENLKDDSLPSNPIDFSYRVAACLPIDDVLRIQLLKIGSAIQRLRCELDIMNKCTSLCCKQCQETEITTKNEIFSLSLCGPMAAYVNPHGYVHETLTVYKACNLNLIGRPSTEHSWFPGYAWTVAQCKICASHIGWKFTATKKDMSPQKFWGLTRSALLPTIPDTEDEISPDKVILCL
T2 sequence (Q96SW2 whole entry, looked up, other chains not shown): as the sequence (Q96SW2 whole entry partner) above
T3 sequence (P25440 whole entry, looked up): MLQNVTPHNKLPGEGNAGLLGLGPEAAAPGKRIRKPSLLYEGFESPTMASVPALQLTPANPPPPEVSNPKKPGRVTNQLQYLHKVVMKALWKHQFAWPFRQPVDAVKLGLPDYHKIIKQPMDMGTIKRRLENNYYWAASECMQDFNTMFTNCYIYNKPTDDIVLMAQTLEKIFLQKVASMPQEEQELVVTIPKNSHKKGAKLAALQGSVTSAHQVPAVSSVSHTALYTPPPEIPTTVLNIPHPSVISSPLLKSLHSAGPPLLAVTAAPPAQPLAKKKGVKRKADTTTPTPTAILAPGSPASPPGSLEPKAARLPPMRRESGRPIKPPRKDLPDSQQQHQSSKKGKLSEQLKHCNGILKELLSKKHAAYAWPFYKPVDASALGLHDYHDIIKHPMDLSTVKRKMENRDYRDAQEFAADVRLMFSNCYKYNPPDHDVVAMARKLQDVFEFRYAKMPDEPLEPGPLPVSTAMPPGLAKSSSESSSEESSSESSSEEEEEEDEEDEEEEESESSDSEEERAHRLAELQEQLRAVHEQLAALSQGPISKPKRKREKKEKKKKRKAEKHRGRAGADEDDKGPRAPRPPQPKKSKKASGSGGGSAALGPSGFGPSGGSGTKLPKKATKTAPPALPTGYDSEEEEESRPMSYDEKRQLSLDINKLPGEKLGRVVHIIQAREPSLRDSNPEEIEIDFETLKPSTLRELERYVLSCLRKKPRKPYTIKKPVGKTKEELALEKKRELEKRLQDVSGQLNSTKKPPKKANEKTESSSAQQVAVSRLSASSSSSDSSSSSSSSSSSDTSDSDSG
T3 sequence (Q96SW2 whole entry, looked up): as the sequence (Q96SW2 whole entry partner) above

For `Cc1nnc2n1-c1ccc(-c3ccc(CNCCCCc4cccc5c4CN(C4CCC(=O)NC4=O)C5=O)cc3)cc1C(Nc1ccc(Cl)cc1)CC2` (stereo not drawn), the Activity (MM1.S [1]) was 20.58%, the Activity [2] was “Active” and the Activity [3] was “Active”. For the same compound, the Activity [4] was “Active”, the Activity (MM1.S [5]) was “Active” and the Activity [6] was “inactive”. The Activity [7] was “Tde”, the Activity [8] was “inactive” and the Activity [9] was “Tde”. It also gave an Activity (MM1.S [10]) of 58.49%, an Activity (MM1.S [11]) of 13.79% and an Activity (MM1.S [12]) of 15.38%. For the same compound, the IC50 (HGC-27) was 2.35 µM, the Activity [13] was “Active” and the Activity [14] was “Dose-Dependent Effect”. For the same compound, the Activity [15] was “inactive”, the Activity (MM1.S [16]) was 15.21% and the Activity [17] was “inactive”. For the same compound, the Activity [18] was “Active”, the Activity (MM1.S [19]) was 15.18% and the Activity [20] was “Active”. The IC50 (HeLa) was 6.96 µM, the Activity [21] was “Dose-Dependent Effect” and the Activity (MM1.S [22]) was 68.85%. The Activity [23] was “inactive”, the Activity [24] was “Dose-Dependent Effect” and the Activity (MM1.S [25]) was 65.17%. For the same compound, the Activity (MM1.S [26]) was 62.34%, the Activity [27] was “inactive” and the Activity [28] was “Tde”. For the same compound, the Activity [29] was “Active”, the IC50 (HepG2) was 17.2 µM and the Activity (MM1.S [30]) was “Active”.
